Results as given in ChEMBL document CHEMBL1150546, “Adenosine dialdehyde analogs I: Regioselective synthesis of adenosine monoaldehydes” (Bioorg Med Chem Lett, 1996).
Converted amounts (≈) assume the structure as drawn.

Columns and labels:
Adenosylhomocysteinase [1] = molecular target: T1, Adenosylhomocysteinase (Homo sapiens, UniProt P23526); assay: Compound was tested for competitive inhibition against S-adenosyl homocysteine (SAH) hydrolase.
Target sequence in this assay (P23526 whole entry): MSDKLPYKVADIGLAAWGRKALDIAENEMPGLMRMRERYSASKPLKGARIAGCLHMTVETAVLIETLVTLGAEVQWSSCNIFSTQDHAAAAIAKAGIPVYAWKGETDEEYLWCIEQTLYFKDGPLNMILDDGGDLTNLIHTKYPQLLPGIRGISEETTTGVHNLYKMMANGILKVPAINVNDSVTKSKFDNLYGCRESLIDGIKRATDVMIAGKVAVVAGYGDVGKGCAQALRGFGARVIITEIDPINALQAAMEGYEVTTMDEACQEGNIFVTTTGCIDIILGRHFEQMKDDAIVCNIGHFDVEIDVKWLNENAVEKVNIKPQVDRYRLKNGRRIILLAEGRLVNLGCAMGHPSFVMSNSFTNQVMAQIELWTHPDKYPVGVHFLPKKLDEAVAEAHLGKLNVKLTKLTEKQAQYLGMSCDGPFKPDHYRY

Vero = assay: cells; settings: Chlorocebus sabaeus
L929 = assay: cells; settings: Mus musculus
Adenosylhomocysteinase [2] = molecular target: T1, Adenosylhomocysteinase; assay: Percentage inhibition of S-adenosyl homocysteine (SAH) hydrolase by the compound at a concentration of 10 uM.
Target sequence in this assay (P23526 2-432 limits assumed): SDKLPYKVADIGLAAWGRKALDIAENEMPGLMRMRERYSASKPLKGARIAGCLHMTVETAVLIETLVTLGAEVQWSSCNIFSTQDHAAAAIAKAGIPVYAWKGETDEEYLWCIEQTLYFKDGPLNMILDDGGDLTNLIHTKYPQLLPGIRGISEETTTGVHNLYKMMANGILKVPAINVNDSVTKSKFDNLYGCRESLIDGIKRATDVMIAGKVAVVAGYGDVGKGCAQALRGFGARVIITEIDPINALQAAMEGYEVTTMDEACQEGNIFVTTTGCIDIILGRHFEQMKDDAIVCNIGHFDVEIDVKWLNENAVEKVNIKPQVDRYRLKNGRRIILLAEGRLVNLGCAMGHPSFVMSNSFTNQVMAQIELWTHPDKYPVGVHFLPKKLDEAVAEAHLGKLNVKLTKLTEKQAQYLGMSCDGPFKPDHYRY

Adenosylhomocysteinase [3] = molecular target: T1, Adenosylhomocysteinase; assay: Compound was tested for inhibition of S-adenosyl homocysteine (SAH) hydrolase.
Target sequence in this assay (P23526 whole entry): as the sequence (P23526 whole entry) above

Q: Which Ki (Adenosylhomocysteinase [1]) does the source give for `Nc1ncnc2c1ncn2[C@@H](CO)O[C@@H](C=O)CO` here?
A: 1900 nM

Q: And the IC50 (Vero)?
A: 0.41 µg/mL (≈ 1.53 µM)

Q: What about the IC50 (L929) of the same compound?
A: 1.9 µg/mL (≈ 7.11 µM)

Q: What about the inhibition (Adenosylhomocysteinase [2]) of the same compound?
A: 89%

Q: `Nc1ncnc2c1ncn2C(C=O)OC(C=O)CO` (stereo unspecified) was tested. Which Ki (Adenosylhomocysteinase [3]) did it give?
A: 3.3 nM

Q: And the IC50 (Vero)?
A: 0.41 µg/mL (≈ 1.55 µM)

Q: What about the IC50 (L929) of the same compound?
A: 3.1 µg/mL (≈ 11.7 µM)

Q: For `C=C(C=O)OC(C=O)n1cnc2c(N)ncnc21` (stereo unspecified), which Ki (Adenosylhomocysteinase [3]) is on record?
A: 0.5 nM

Q: What about the IC50 (Vero) of the same compound?
A: 11.5 µg/mL (≈ 46.5 µM)

Q: What about the IC50 (L929) of the same compound?
A: 8.9 µg/mL (≈ 36 µM)

Q: Which inhibition (Adenosylhomocysteinase [2]) does the source give for `Nc1ncnc2c1ncn2[C@@H](C=O)OC(CO)CO` here?
A: 4%
